In one assay the target is T1, Protein skinhead-1 (Caenorhabditis elegans, UniProt P34707).
T1 sequence (P34707 whole entry): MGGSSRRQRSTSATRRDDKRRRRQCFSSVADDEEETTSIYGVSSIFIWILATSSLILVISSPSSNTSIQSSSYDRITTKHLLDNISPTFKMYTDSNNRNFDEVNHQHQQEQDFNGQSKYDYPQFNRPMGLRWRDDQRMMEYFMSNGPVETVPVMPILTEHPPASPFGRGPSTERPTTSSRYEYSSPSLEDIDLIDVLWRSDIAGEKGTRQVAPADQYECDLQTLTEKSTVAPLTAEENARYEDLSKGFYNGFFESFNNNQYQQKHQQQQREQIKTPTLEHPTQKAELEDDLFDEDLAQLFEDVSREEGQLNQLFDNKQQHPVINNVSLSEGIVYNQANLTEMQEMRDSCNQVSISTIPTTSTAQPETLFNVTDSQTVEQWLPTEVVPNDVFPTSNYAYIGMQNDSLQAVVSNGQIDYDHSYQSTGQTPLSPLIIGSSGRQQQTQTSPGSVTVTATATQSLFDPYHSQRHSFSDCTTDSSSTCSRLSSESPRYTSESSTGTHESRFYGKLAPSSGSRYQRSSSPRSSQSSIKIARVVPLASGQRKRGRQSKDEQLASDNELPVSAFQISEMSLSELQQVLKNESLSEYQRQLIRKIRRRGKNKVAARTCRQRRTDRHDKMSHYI
The assay is classed as functional.

The nature of assay [1]: Luminescence Cell-Based Dose Confirmation HTS to Identify Activators of 5'UTR Stem-Loop Driven Alpha-Synuclein mRNA Translation in H4 Neuroglioblastoma Cells. [Related pubchem assays: 1829 (Project Summary), 1814 (Primary HTS)]. The format is functional.
The subject of the next assay is H4. The assay is described as follows: Luminescence Cell-Based Dose Response HTS to Identify Activators of 5'UTR Stem-Loop Driven Prion Protein mRNA Translation in H4 Neuroglioblastoma Cells. [Related pubchem assays: 1829 (Project Summary), 1814 (Primary HTS)]. The format is functional. Conditions: Homo sapiens.
Assay [2] in a line: Luminescence Cell-Based Dose Response HTS to Identify Activators of Luciferase Translation or Activity in H4 […] Cells. [Related pubchem assays: 1829 (Project Summary), 1814 (Primary HTS)]. The format is functional.
The nature of assay [3]: NIH-3T3 fibroblast cytotoxicity, dose response, cytotoxicity control, cell-based, fluorescence, Alamar Blue, secondary assay (AID 2327).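 Note: NIH-3T3 mouse fibroblasts cultured with fluconazole at 8 µg/mL.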 The assay is classed as functional. Background: Alamar Blue is a resazurin reagent that responds to reducing activity.
The nature of assay [4]: fluconazole-exposed Candida albicans growth modulators – fluorescence, retest, confirmation (AID 2467). The assay is classed as functional, cell-based.
A short description of assay [5]: viability of uninfected HEp-2 cells – cell-based, HTS, cytotoxicity control for RSV inhibitor project, dose response (AID 2410). The format is functional. Particulars: human respiratory syncytial virus.
A short description of assay [6]: microbe, parasite or virus in culture. The assay is classed as functional. Conditions: Mycobacterium tuberculosis.
A further assay has as its system H9c2. Nature of the assay: cells. The assay is classed as functional, cell-based. Particulars: Rattus norvegicus, H9c2, Myocardium.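 Note: confirmatory concentration-response retest of ultra-high-throughput screening hits for modulation of myocardial damage; cell death induced by hydrogen peroxide oxidative stress; compound pretreatment for 60 min then peroxide exposure for 2 h; potency is for protecting the cells against peroxide damage rather than for killing them.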
The target of assay [7] is T2, Corticotropin-releasing factor receptor 2/Corticotropin-releasing factor-binding protein (Homo sapiens, UniProt P24387+Q13324).
T2 sequence (Q13324 whole entry): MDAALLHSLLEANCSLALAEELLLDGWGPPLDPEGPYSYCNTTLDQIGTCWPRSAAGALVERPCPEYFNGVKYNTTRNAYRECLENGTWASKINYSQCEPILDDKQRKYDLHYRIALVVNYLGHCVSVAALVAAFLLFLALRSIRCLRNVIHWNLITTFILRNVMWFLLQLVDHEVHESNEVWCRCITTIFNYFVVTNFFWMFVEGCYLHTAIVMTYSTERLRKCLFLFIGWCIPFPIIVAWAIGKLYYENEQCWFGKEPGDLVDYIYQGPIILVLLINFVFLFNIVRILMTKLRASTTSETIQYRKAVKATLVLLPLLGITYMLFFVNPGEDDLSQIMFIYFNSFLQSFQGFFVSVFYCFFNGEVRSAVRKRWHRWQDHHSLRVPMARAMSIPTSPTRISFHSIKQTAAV
T2 sequence (P24387 whole entry): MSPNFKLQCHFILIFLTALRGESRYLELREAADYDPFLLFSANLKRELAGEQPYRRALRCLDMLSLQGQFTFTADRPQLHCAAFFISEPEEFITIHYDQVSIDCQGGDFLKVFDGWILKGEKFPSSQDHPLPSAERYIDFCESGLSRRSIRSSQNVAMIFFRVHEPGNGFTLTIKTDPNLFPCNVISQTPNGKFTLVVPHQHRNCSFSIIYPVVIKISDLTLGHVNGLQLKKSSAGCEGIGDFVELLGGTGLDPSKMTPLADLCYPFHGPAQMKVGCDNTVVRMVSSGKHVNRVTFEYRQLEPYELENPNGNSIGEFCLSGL
Nature of the assay: activators of CRF receptor 2 with binding protein – uHTS hits, confirmation (AID 602473). The assay is classed as functional. Particulars: read-out: EC50_Mean.

A short description of assay [8]: NIH3T3 cell viability loss – ATP luminescence, mouse fibroblasts, counter-screen, dose response (AID 2010).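 Note: cells exposed to compound for about 90 hours before reading.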 The format is functional, cell-based.
Assay [9] in a line: Trypanosoma cruzi growth suppression in host cells – NIH3T3 host cells, beta-gal luminescence, confirmation (AID 2044).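 Note: intracellular parasites grown in NIH/3T3 mouse fibroblasts as host cells; luminescent beta-galactosidase reporter signal from transgenic T. cruzi replicating inside host cells; inhibitors lower the luminescence signal.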 The assay is classed as functional, cell-based.
A short description of assay [10]: reduction of Shn3 3'UTR-driven luciferase in osteoblasts – cell-based, Clone20 osteoblasts, firefly luciferase, cherry-picked, dose response (AID 624132).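 Note: firefly luciferase luminescence from reporter carrying the Shn3 3'UTR in osteoblasts.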 The format is functional.
The subject of the next assay is Streptococcus. The assay is described as follows: GAS UMAA2166 growth inhibition – luminescence, BacTiterGlo, counter-screen for streptokinase expression inhibitor project, dose response (AID 1915).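 Note: potency for reduction of bacterial viability or growth.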 The assay is classed as functional, organism-based.
For assay [11], the system named is Streptococcus sp. 'group A'. The assay is described as follows: Streptococcus pyogenes SK(-)GAS viability under kanamycin – luminescence, BacTiterGlo, confirmation, counter-screen for streptokinase expression inhibitor project, dose response (AID 1900). The format is functional, organism-based. Background: Counterscreens check selectivity or assay interference.

In a further assay the target is T3, Streptokinase A (Streptococcus pyogenes serotype M1, UniProt P10520).
T3 sequence (P10520 whole entry): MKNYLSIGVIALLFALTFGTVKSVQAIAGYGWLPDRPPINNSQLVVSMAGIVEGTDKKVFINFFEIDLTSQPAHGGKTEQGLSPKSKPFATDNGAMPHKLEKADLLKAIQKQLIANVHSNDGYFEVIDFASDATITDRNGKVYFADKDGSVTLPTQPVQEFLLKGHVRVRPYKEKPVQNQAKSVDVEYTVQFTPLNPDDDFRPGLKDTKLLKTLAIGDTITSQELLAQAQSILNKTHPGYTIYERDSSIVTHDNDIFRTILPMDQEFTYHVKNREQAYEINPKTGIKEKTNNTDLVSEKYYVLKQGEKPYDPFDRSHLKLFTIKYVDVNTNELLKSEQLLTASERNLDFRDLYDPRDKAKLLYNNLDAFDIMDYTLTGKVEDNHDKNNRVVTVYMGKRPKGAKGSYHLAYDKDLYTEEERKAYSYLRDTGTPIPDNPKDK
Nature of the assay: viability-normalized secreted streptokinase activity reduction – plasminogen activation absorbance, OD405, dose response (AID 1914).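 Note: secreted streptokinase activity via plasminogen activation per viability signal from cell pellet.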 The format is functional, Streptococcus pyogenes M1 GAS.

Active and inactive are the calls of the source. Cut-off read from the data, not from the text of the source, for most assays here: actives have a measured EC50 and inactives only a lower limit. Some results are limits rather than exact numbers.

As usually defined, the IC50 is the concentration at which inhibition is half-maximal. Consider `CCN1C(=O)/C(=C/N(C)c2ccccc2)OC1=S`, for which the IC50 at Protein skinhead-1 is 76.6 µM (inactive).
As for `COc1cc(/C=C2\C=CC(=O)O2)cc(OC)c1`, the EC50 was 13.3 µM (active) in assay [1], > 120 µM (not active) with H4 and 12.2 µM (active) in [2].
`O=[N+]([O-])c1ccc(S(=O)(=O)Nc2nc3ccccc3nc2Nc2ccccc2)cc1`: the EC50 in assay [3] is > 150 µM (inactive); in assay [4], 2.06 µM (active).
On to `O=C(C1=NNCC1c1ccccc1)C1OC1c1ccccc1` (stereo not given), for which the EC50 in assay [1] was 20.8 µM (active); in the assay on H4, > 120 µM (not active); in [2], 13.5 µM (active).
On to `Cc1onc(-c2ccccc2)c1C(=O)NN=C(N)COc1ccc(Cl)cc1`, for which the EC50 in assay [3] was > 150 µM (inactive); in [4], > 38 µM (not active).
The matching figures for `O=C(O)c1cnc(-c2ccccc2)nc1Sc1ccccc1Cl`: > 160 µM (inactive) and 0.356 µM (active).
Consider `Cc1cccc(NC(S)=NNC(=O)c2csc(C(C)C)c2)c1`, for which the EC50 is 20.3 µM (active) in assay [1], > 150 µM (inactive) in assay [3] and 36.9 µM (active) in [2]. For the same compound, in assay [5], the CC50 was 27.1 µM (active).
Take `Cc1c(Cl)cccc1Nc1c([N+](=O)[O-])nn(-c2ccccc2)[n+]1[O-]`: on Protein skinhead-1, the IC50 is > 100 µM (inactive).
In the case of `O=C(Nc1ccc(Br)c(Cl)c1)c1ccco1`, the IC50 at Protein skinhead-1 is 14.2 µM (active).
Consider `O=C1C(Cl)=C(N2CCOCC2)C(=O)N1CCc1ccccc1`, for which the EC50 in assay [1] was 0.656 µM (active); in the assay with H4, > 120 µM (not active); in assay [2], 1.56 µM (active).
As for `CCOC(=O)C1CCN(C(=O)CSCc2nc(-c3ccc(OCC)cc3)oc2C)CC1`, in assay [6], the CC50 was > 40 µM (active).
Take `C=CCN1C(=O)C(=O)N(Cc2nc3ccccc3s2)C1=O`: the EC50 was 10.7 µM (active) in assay [1], 0.283 µM (active) in the assay on H4 and 36.3 µM (active) in [2]. For the same compound, the IC50 at Protein skinhead-1 is > 100 µM (inactive).
With `Cc1nc(N2CCN(S(=O)(=O)c3cccc4nonc34)CC2)c2c3c(sc2n1)CCCC3`, the IC50 with H9c2 is > 79 µM (inactive).
Turning to `COc1ccccc1Nc1nc(N)nc(CCl)n1`, the CC50 in assay [6] is 1.88 µM (active).
Turning to `N#C/C(=C/c1ccc(Sc2nc3ccccc3[nH]2)o1)c1cccc(Br)c1`, the CC50 in assay [6] is > 40 µM (active).
As for `O=C(NN=C(S)Nc1cccc(C(F)(F)F)c1)c1ccc(Cl)cc1Cl`, the EC50 in assay [3] was > 160 µM (inactive); in assay [4] it was 4.65 µM (active); in assay [7], > 53 µM (inactive).
As to `COc1ccc(NN=Nc2ccc([N+](=O)[O-])cc2)cc1`, the EC50 is 1.01 µM (active) in [1], 64.4 µM (active) in the assay on H4 and 0.485 µM (active) in [2].
Consider `O=C(/C=C/c1cccs1)c1ccc(Br)cc1`, for which, at Protein skinhead-1, the IC50 was 73.8 µM (inactive).
Turning to `C=CCNC(=O)c1cc2c(=O)n3ccccc3nc2s1`, the EC50 in assay [1] was 1.08 µM (active); in assay [2], 0.166 µM (active). Further, the IC50 on Protein skinhead-1 was > 100 µM (inactive).
As for `Cc1ccc(NC(=O)CNC(=O)c2cccs2)cc1S(=O)(=O)Nc1ccc(Cl)cc1`, at Protein skinhead-1, the IC50 was > 100 µM (inactive).
With `CCCc1ccc(OCC(=O)Nc2cc(S(=O)(=O)CC)ccc2O)cc1`, the results for the EC50 in assay [3] and in [4] were > 160 µM (inactive) and 1.45 µM (active), respectively.
In the case of `c1ccc(-c2nc(-n3ccnc3)nc(-n3ccnc3)n2)cc1`, in the assay with H9c2, the IC50 was > 79 µM (inactive).
`CC(=O)Nc1cc(C(F)(F)F)ccc1OCC1CCCO1` (stereo not given): on Protein skinhead-1, the IC50 was > 100 µM (inactive).
For the compound `CCSc1ccc2cc(OC)ccc2[n+]1CC`, the EC50 was > 160 µM (inactive) in assay [3], > 60 µM (not active) in assay [8], > 38 µM (not active) in [4] and 6.53 µM (active) in [9].
As to `Fc1ccccc1-c1nc(-c2ccc(Cl)cc2)no1`, the IC50 at Protein skinhead-1 was > 100 µM (inactive).
Regarding `O=C(OCC(=O)N1CCc2ccccc21)c1nnc(O)c2ccccc12`, the IC50 in the assay on H9c2 was 12.3 µM (active).
As usually defined, the AC50 is the concentration giving half of the maximal activity seen. Take `C[C@]12CC[C@H](O)CC1=CCC1C2CC[C@@]2(C)C1CCC21OCCO1` (stereo not given in full): in assay [10], the AC50 is 27.3 µM (active).
On to `Oc1oc(-c2ccccc2Br)nc1/C=N/c1ccccn1`, for which the EC50 was 59.1 µM (active) in assay [1], > 120 µM (not active) in the assay with H4 and 13 µM (active) in assay [2].
Take `CC1=C/C(=N\NC(=S)NCCc2ccccc2)CC(C)(C)C1`: the EC50 in assay [1] was 12.1 µM (active); in [3], > 150 µM (inactive); in the assay on Streptococcus, > 150 µM (not active); in assay [11], 11.4 µM (active); with H4, > 120 µM (not active); in [4], > 38 µM (not active). Besides, the EC50 at Streptokinase A was 64 µM (active); in assay [2] it was 14.2 µM (active).
Take `Cc1nn(-c2ccccc2)c(Cl)c1/C=N/NC(=O)c1ccc(NS(=O)(=O)c2cccs2)cc1`: the EC50 was 17.3 µM (active) in [1]; 5.04 µM (active) in the assay with Streptococcus; 2.1 µM (active) in assay [11]; 9.52 µM (active) in the assay with H4; 7.45 µM (active) in assay [2].
With `O=c1cc(/C=C/c2ccccc2)oc2ccccc12`, at Protein skinhead-1, the IC50 is 78.9 µM (inactive). Besides, the CC50 in [6] was > 40 µM (active).

The record behind these values is ChEMBL document CHEMBL1201862, “PubChem BioAssay data set” (2004).
